Source: PubChem BioAssay (NCI)
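These data come from cells grown in 96-well plates and exposed to compound for 48 hours at five concentrations. Definition used: TGI = concentration required for complete inhibition of growth.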

Assays:
Test in all cases: NCI-60 cell line screen, 48 h
ACHN renal = test system: ACHN renal
SNB-19 CNS = test system: SNB-19 CNS
HCC-2998 colon = test system: HCC-2998 colon
A549 NSCLC = test system: A549 NSCLC
MOLT-4 leukemia = test system: MOLT-4 leukemia
SW-620 colon = test system: SW-620 colon
HT29 colon = test system: HT29 colon
CCRF-CEM leukemia = test system: CCRF-CEM leukemia
NCI/ADR-RES ovarian = test system: NCI/ADR-RES ovarian
HCT-15 colon = test system: HCT-15 colon
CAKI-1 renal = test system: CAKI-1 renal
KM12 colon = test system: KM12 colon
A498 renal = test system: A498 renal
MDA-MB-231 breast = test system: MDA-MB-231 breast
BT-549 breast = test system: BT-549 breast
SNB-75 CNS = test system: SNB-75 CNS
SN12C renal = test system: SN12C renal
UACC-257 melanoma = test system: UACC-257 melanoma
HS 578T breast = test system: HS 578T breast
MALME-3M melanoma = test system: MALME-3M melanoma
HL-60(TB) leukemia = test system: HL-60(TB) leukemia
SK-MEL-5 melanoma = test system: SK-MEL-5 melanoma
NCI-H522 lung = test system: NCI-H522 lung
SF-295 CNS = test system: SF-295 CNS
OVCAR-8 ovarian = test system: OVCAR-8 ovarian
SF-268 CNS = test system: SF-268 CNS
T-47D breast = test system: T-47D breast
NCI-H23 lung = test system: NCI-H23 lung
NCI-H460 lung = test system: NCI-H460 lung
786-0 renal = test system: 786-0 renal
SK-OV-3 ovarian = test system: SK-OV-3 ovarian
OVCAR-5 ovarian = test system: OVCAR-5 ovarian
PC-3 prostate = test system: PC-3 prostate
SF-539 CNS = test system: SF-539 CNS
OVCAR-4 ovarian = test system: OVCAR-4 ovarian
EKVX NSCLC = test system: EKVX NSCLC
UO-31 renal = test system: UO-31 renal
MDA-MB-435 = test system: MDA-MB-435
HCT-116 colon = test system: HCT-116 colon
SR leukemia = test system: SR leukemia
HOP-92 NSCLC = test system: HOP-92 NSCLC
COLO 205 colon = test system: COLO 205 colon
UACC-62 melanoma = test system: UACC-62 melanoma
IGROV1 ovarian = test system: IGROV1 ovarian
NCI-H226 lung = test system: NCI-H226 lung
LOX IMVI melanoma = test system: LOX IMVI melanoma
K-562 leukemia = test system: K-562 leukemia
M14 melanoma = test system: M14 melanoma
MCF7 breast = test system: MCF7 breast
U251 CNS = test system: U251 CNS
DU-145 prostate = test system: DU-145 prostate
TK-10 renal = test system: TK-10 renal
SK-MEL-2 melanoma = test system: SK-MEL-2 melanoma
MDA-N = test system: MDA-N
SK-MEL-28 melanoma = test system: SK-MEL-28 melanoma
OVCAR-3 ovarian = test system: OVCAR-3 ovarian
RPMI-8226 leukemia = test system: RPMI-8226 leukemia
HOP-62 NSCLC = test system: HOP-62 NSCLC
RXF 393 renal = test system: RXF 393 renal

## COc1ccc2cc1Oc1ccc(cc1)CC1c3cc(OC)c(cc3CCN1C)Oc1c(OC)c(OC)cc3c1C(C2)N(C)CC3 (centres undefined)
ACHN renal
  TGI: 19 µM
SNB-19 CNS
  TGI: 27.1 µM
HCC-2998 colon
  TGI: 19.1 µM
A549 NSCLC
  TGI: 53.4 µM
MOLT-4 leukemia
  TGI: 32.4 µM
SW-620 colon
  TGI: > 75 µM
HT29 colon
  TGI: 18 µM
CCRF-CEM leukemia
  TGI: 42.4 µM
NCI/ADR-RES ovarian
  TGI: 29.9 µM
HCT-15 colon
  TGI: 18.3 µM
CAKI-1 renal
  TGI: 29.4 µM
KM12 colon
  TGI: 26 µM
A498 renal
  TGI: 23.9 µM
MDA-MB-231 breast
  TGI: 21.5 µM
BT-549 breast
  TGI: 20.9 µM
SNB-75 CNS
  TGI: 18.2 µM
SN12C renal
  TGI: 18.3 µM
UACC-257 melanoma
  TGI: 16.1 µM
HS 578T breast
  TGI: 25.6 µM
MALME-3M melanoma
  TGI: 23.1 µM
HL-60(TB) leukemia
  TGI: 16.3 µM
SK-MEL-5 melanoma
  TGI: 15.9 µM
NCI-H522 lung
  TGI: 20.6 µM
SF-295 CNS
  TGI: 21.1 µM
OVCAR-8 ovarian
  TGI: 23.2 µM
SF-268 CNS
  TGI: 33.6 µM
T-47D breast
  TGI: 20.5 µM
NCI-H23 lung
  TGI: 35.6 µM
NCI-H460 lung
  TGI: 19.8 µM
786-0 renal
  TGI: 30.4 µM
SK-OV-3 ovarian
  TGI: > 75 µM
OVCAR-5 ovarian
  TGI: > 75 µM
PC-3 prostate
  TGI: 40.7 µM
SF-539 CNS
  TGI: 19.5 µM
OVCAR-4 ovarian
  TGI: 24.4 µM
EKVX NSCLC
  TGI: 31.7 µM
UO-31 renal
  TGI: 18.8 µM
MDA-MB-435
  TGI: 26.2 µM
HCT-116 colon
  TGI: > 75 µM
SR leukemia
  TGI: 4.33 µM
HOP-92 NSCLC
  TGI: 34.1 µM
COLO 205 colon
  TGI: 11.8 µM
UACC-62 melanoma
  TGI: 23.3 µM
IGROV1 ovarian
  TGI: 64.2 µM
NCI-H226 lung
  TGI: 51.7 µM
LOX IMVI melanoma
  TGI: 28 µM
K-562 leukemia
  TGI: 28.7 µM
M14 melanoma
  TGI: 15 µM
MCF7 breast
  TGI: 36.7 µM
U251 CNS
  TGI: 24.6 µM
DU-145 prostate
  TGI: 27.9 µM
TK-10 renal
  TGI: 20.6 µM
SK-MEL-2 melanoma
  TGI: 25.6 µM
MDA-N
  TGI: 20.3 µM
SK-MEL-28 melanoma
  TGI: 34.9 µM

## Nc1nc2c(c(=O)[nH]1)CN(CCCN1CCOCC1)CN2
ACHN renal
  TGI: > 100 µM
SNB-19 CNS
  TGI: > 100 µM
HCC-2998 colon
  TGI: > 100 µM
A549 NSCLC
  TGI: > 100 µM
MOLT-4 leukemia
  TGI: > 100 µM
SW-620 colon
  TGI: > 100 µM
HT29 colon
  TGI: > 100 µM
NCI/ADR-RES ovarian
  TGI: > 100 µM
OVCAR-3 ovarian
  TGI: > 100 µM
HCT-15 colon
  TGI: > 100 µM
CAKI-1 renal
  TGI: > 100 µM
KM12 colon
  TGI: > 100 µM
A498 renal
  TGI: > 100 µM
MDA-MB-231 breast
  TGI: > 100 µM
BT-549 breast
  TGI: > 100 µM
SN12C renal
  TGI: > 100 µM
UACC-257 melanoma
  TGI: > 100 µM
HS 578T breast
  TGI: > 100 µM
MALME-3M melanoma
  TGI: > 100 µM
SK-MEL-5 melanoma
  TGI: > 100 µM
NCI-H522 lung
  TGI: > 100 µM
SF-295 CNS
  TGI: > 100 µM
RPMI-8226 leukemia
  TGI: > 100 µM
OVCAR-8 ovarian
  TGI: > 100 µM
SF-268 CNS
  TGI: > 100 µM
T-47D breast
  TGI: > 100 µM
NCI-H23 lung
  TGI: > 100 µM
NCI-H460 lung
  TGI: > 100 µM
786-0 renal
  TGI: > 100 µM
OVCAR-5 ovarian
  TGI: > 100 µM
PC-3 prostate
  TGI: > 100 µM
SF-539 CNS
  TGI: > 100 µM
OVCAR-4 ovarian
  TGI: > 100 µM
HOP-62 NSCLC
  TGI: > 100 µM
EKVX NSCLC
  TGI: > 100 µM
UO-31 renal
  TGI: > 100 µM
MDA-MB-435
  TGI: > 100 µM
HCT-116 colon
  TGI: > 100 µM
SR leukemia
  TGI: > 100 µM
HOP-92 NSCLC
  TGI: > 100 µM
COLO 205 colon
  TGI: > 100 µM
UACC-62 melanoma
  TGI: > 100 µM
IGROV1 ovarian
  TGI: > 100 µM
NCI-H226 lung
  TGI: > 100 µM
LOX IMVI melanoma
  TGI: > 100 µM
K-562 leukemia
  TGI: > 100 µM
M14 melanoma
  TGI: > 100 µM
MCF7 breast
  TGI: > 100 µM
U251 CNS
  TGI: > 100 µM
DU-145 prostate
  TGI: > 100 µM
TK-10 renal
  TGI: > 100 µM
SK-MEL-2 melanoma
  TGI: > 100 µM
MDA-N
  TGI: > 100 µM
SK-MEL-28 melanoma
  TGI: > 100 µM

## COc1ccc(Nc2nc3cc(C(F)(F)F)ccc3n3cccc23)cc1OC
ACHN renal
  TGI: 74.3 µM
SNB-19 CNS
  TGI: 60.9 µM
HCC-2998 colon
  TGI: 27.3 µM
RXF 393 renal
  TGI: 29 µM
A549 NSCLC
  TGI: 50.8 µM
MOLT-4 leukemia
  TGI: 37.8 µM
SW-620 colon
  TGI: > 100 µM
HT29 colon
  TGI: 24.1 µM
CCRF-CEM leukemia
  TGI: > 100 µM
NCI/ADR-RES ovarian
  TGI: 50.1 µM
OVCAR-3 ovarian
  TGI: 54 µM
HCT-15 colon
  TGI: 56.1 µM
CAKI-1 renal
  TGI: > 100 µM
KM12 colon
  TGI: 34 µM
A498 renal
  TGI: 32.6 µM
MDA-MB-231 breast
  TGI: 36.5 µM
BT-549 breast
  TGI: 56.1 µM
SNB-75 CNS
  TGI: 39.5 µM
UACC-257 melanoma
  TGI: 34.8 µM
HS 578T breast
  TGI: > 100 µM
MALME-3M melanoma
  TGI: 54.4 µM
HL-60(TB) leukemia
  TGI: 67 µM
SK-MEL-5 melanoma
  TGI: 27.6 µM
NCI-H522 lung
  TGI: 41.5 µM
SF-295 CNS
  TGI: 30.1 µM
RPMI-8226 leukemia
  TGI: 55.1 µM
OVCAR-8 ovarian
  TGI: 87.8 µM
SF-268 CNS
  TGI: > 100 µM
T-47D breast
  TGI: 34.9 µM
NCI-H23 lung
  TGI: 43.2 µM
NCI-H460 lung
  TGI: 28.7 µM
786-0 renal
  TGI: 24.7 µM
SK-OV-3 ovarian
  TGI: 92.1 µM
OVCAR-5 ovarian
  TGI: 58 µM
PC-3 prostate
  TGI: 26.8 µM
SF-539 CNS
  TGI: 34 µM
HOP-62 NSCLC
  TGI: 48.7 µM
EKVX NSCLC
  TGI: 58.5 µM
UO-31 renal
  TGI: 63.4 µM
MDA-MB-435
  TGI: 36.3 µM
HCT-116 colon
  TGI: 27.4 µM
SR leukemia
  TGI: 34.9 µM
HOP-92 NSCLC
  TGI: 47.5 µM
UACC-62 melanoma
  TGI: 28.9 µM
IGROV1 ovarian
  TGI: > 100 µM
LOX IMVI melanoma
  TGI: 15.8 µM
K-562 leukemia
  TGI: 52.6 µM
M14 melanoma
  TGI: 31.3 µM
MCF7 breast
  TGI: 51.5 µM
U251 CNS
  TGI: 28.6 µM
DU-145 prostate
  TGI: 52.6 µM
TK-10 renal
  TGI: 49 µM
SK-MEL-2 melanoma
  TGI: 30.9 µM
MDA-N
  TGI: 29.3 µM
SK-MEL-28 melanoma
  TGI: > 100 µM
